Reference: ChEMBL document CHEMBL4834422, “New Tyramine- and Aporphine-Type Alkamides with NO Release Inhibitory Activities from Piper puberulum” (J Nat Prod, 2021)

Experiments:
BV-2 [1] = assay: Antineuroinflammatory activity against mouse BV2 cells assessed as inhibition of LPS-induced NO production incubated for 20 hrs by Griess assay; format: functional, cell-based; details: BV-2, 20 h
BV-2 [2] = assay: Cytotoxicity against mouse BV2 cells assessed as reduction in cell viability at 1 to 25 uM after 24 hrs by MTT assay; format: cell-based; details: bv-2, 24 h, dose 1-25 µM

Compound | IC50 (BV-2 [1]) [µM] | Activity (BV-2 [2])
COc1cc(/C=C\C(=O)NCCc2ccc(O)cc2)ccc1O | 22 | Non-Toxic
COc1cc(/C=C\C(=O)NCCc2ccc(O)cc2)cc(OC)c1O | > 50 | –
COc1ccc(O)c(C(=O)NCCc2ccc(O)cc2)c1 | > 50 | –
COc1ccc(CCNC(=O)c2cc(O)ccc2O)cc1 | 7 | Non-Toxic
COc1cc([C@H]2c3c(cc(OC)c(O)c3OC)C=C(C(=O)NCCc3ccc(O)cc3)[C@@H]2C(=O)NCCc2ccc(O)cc2)cc(OC)c1O | > 50 | –
COc1ccc(CCNC(=O)c2c(O)ccc(O)c2OC)cc1 | 1.4 | Non-Toxic
COc1ccc(CCNC(=O)c2cc(OC)ccc2O)cc1 | > 50 | –
COc1cc2c3c(cc4ccccc4c3c1OC)NC2=O [CEPHARANONE B] | > 50 | –
O=C1c2ccccc2-c2c3c(cc4ccnc1c24)OCO3 [LIRIODENINE] | 5 | Non-Toxic
O=C(/C=C/c1ccc(O)cc1)NCCc1ccc(O)cc1 [N-P-COUMAROYL TYRAMINE] | 2.2 | Non-Toxic
COc1cc(/C=C/C(=O)NCCc2ccc(O)cc2)ccc1O [N-TRANS-FERULOYL TYRAMINE] | 18 | Non-Toxic
CCCCC/C=C/C=C/C(=O)NCC(C)C [PELLITORIN] | 45 | Non-Toxic
COc1cc2c3c(cc4ccccc4c3c1O)NC2=O [PIPEROLACTAM A] | > 50 | –
COc1cc(/C=C/C(=O)NCCc2ccc(O)cc2)cc(OC)c1O [TRANS-N-SINAPOYLTYRAMINE] | > 50 | –

Further lines, with some results ahead:

IC50 (BV-2 [1]) [µM] | Compound | Activity (BV-2 [2])
> 50 | COc1cc(/C=C/C(=O)NCCc2ccc(O)c(OC)c2)ccc1O | –
> 50 | COc1c(O)cc2c3c1-c1ccccc1[C@H](O)[C@H]3N(C(C)=O)CC2 | –
> 50 | NC(=O)c1cn(CCc2ccc(O)cc2)c(=O)c2c(O)ccc(O)c12 | –
16 | COc1c2c3c(c4c1OCO4)-c1ccccc1[C@H](O)[C@H]3N(C(C)=O)CC2 | Non-Toxic
> 50 | COc1cccc(/C=C/C(=O)N2CCCC2)c1 | –
> 50 | COc1cc2c3c(c1OC)-c1ccccc1[C@H](O)[C@H]3N(C(C)=O)CC2 | –
> 50 | COc1c(O)c(OC)c2c3c1CCN(C(C)=O)[C@@H]3[C@@H](O)c1ccccc1-2 | –
> 50 | COc1c2c3c(c(OC)c1OC)-c1ccccc1[C@H](O)[C@H]3N(C(C)=O)CC2 | –
6.8 | O=CN1CCc2cc3c(c4c2[C@H]1[C@@H](O)c1ccccc1-4)OCO3 | Non-Toxic
9 | CC(=O)N1CCc2cc3c(c4c2[C@H]1[C@@H](O)c1ccccc1-4)OCO3 | Non-Toxic
26 | COc1ccc(O)c(C(=O)NCCc2ccc(O)c(OC)c2)c1 | Non-Toxic
12 | COc1c(OC)c(OC)c2c3c(cc4ccccc42)NC(=O)c13 | Non-Toxic
> 50 | COc1ccc(OC)c(C(=O)NCCc2ccc(O)c(OC)c2)c1 | –
21 | O=C(NCCc1ccc(O)cc1)c1ccc(O)c(O)c1 | Non-Toxic
15 | CN(C)c1ccc(O)c2c1C[C@H]1C[C@H]3[C@H](N(C)C)C(O)=C(C(N)=O)C(=O)[C@@]3(O)C(O)=C1C2=O [MINOCYCLINE] | –
37 | COc1cc2c3c(cc4ccccc4c3c1OC)NC(=O)C2=O [NORCEPHARADIONE] | Non-Toxic
